Reference: ChEMBL document CHEMBL1201862, “PubChem BioAssay data set” (2004)
Active and inactive are the calls of the source. Cut-off read from the data, not from the text of the source, for most assays here: actives have a measured EC50 and inactives only a lower limit.

What was measured:
[1] = Counterscreen for IDE inhibitors: Luminescence-based cell-based high throughput dose response assay to identify compounds that are cytotoxic to HEK cells. [Related pubchem assays: 434962 (Primary screen (IDE inhibitors in singlicate)), 449730 (Counterscreen (Cytotoxicity in triplicate)), 435028 (Confirmation (IDE inhibitors in triplicate)) …; assay type: functional; settings: HEK293
Insulin-degrading enzyme = biological target: T1, Insulin-degrading enzyme (Homo sapiens, UniProt P14735); test: Dose Response: Fluorescence polarization-based cell-based high throughput dose response assay for inhibitors of insulin-degrading enzyme (IDE). [Related pubchem assays: 434962 (Primary screen (IDE inhibitors in singlicate)), 449730 (Counterscreen (Cytotoxicity in triplicate)), 435028 (Confirmation (IDE inhibitors in triplicate)), 434984 (Summary …; assay type: functional
T1 sequence (P14735 whole entry): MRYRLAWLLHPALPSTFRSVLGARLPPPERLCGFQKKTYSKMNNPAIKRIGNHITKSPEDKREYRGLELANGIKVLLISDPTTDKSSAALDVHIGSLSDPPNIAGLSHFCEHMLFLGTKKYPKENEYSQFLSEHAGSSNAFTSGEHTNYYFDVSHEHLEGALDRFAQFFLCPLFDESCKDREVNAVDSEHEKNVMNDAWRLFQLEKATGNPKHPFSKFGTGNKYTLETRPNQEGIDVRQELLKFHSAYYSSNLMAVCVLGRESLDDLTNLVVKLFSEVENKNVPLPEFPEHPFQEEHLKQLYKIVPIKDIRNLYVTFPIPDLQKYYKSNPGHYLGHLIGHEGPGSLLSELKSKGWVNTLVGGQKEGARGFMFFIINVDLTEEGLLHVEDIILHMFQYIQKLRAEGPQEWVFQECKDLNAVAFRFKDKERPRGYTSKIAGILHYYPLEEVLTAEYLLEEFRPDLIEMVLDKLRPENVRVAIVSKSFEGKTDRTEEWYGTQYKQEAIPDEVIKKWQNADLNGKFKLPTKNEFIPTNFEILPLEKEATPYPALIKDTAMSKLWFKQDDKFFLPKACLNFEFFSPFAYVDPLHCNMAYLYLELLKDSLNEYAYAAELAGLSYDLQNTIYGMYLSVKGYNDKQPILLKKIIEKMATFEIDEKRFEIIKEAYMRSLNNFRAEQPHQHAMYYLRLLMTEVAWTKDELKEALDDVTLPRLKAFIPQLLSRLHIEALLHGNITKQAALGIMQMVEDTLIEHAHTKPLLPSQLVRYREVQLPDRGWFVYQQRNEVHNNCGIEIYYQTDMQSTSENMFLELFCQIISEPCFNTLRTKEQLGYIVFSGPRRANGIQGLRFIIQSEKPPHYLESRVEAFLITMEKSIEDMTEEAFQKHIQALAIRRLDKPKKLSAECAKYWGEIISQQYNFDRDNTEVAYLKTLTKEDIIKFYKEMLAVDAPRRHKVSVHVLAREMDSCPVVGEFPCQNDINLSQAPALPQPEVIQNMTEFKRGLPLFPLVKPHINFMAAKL

[2] = NIH-3T3 fibroblast cytotoxicity, dose response, cytotoxicity control, cell-based, fluorescence, Alamar Blue, secondary assay (AID 2327); assay type: functional;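 note: NIH-3T3 mouse fibroblasts cultured with fluconazole at 8 µg/mL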
[3] = system: Streptococcus sp. 'group A'; test: Streptococcus pyogenes SK(-)GAS viability under kanamycin – luminescence, BacTiterGlo, confirmation, counter-screen for streptokinase expression inhibitor project, dose response (AID 1900); assay type: functional, organism-based
[4] = fluconazole-exposed Candida albicans growth modulators – fluorescence, retest, confirmation (AID 2467); assay type: functional, cell-based
NS3 = NS3 (Hepatitis C virus, UniProt A3EZJ3); test: PubChem AID 2173; design: species or system Hepacivirus hominis
[5] = biological target: T2, Serine/threonine-protein phosphatase (Candida dubliniensis (strain CD36 / CBS 7987 / NCPF 3949 / NRRLY-17841) (Yeast), UniProt B9W6M3); test: blockers of CaCl2-induced CDRE-lacZ signaling – S. cerevisiae, luminescence, secondary, dose response (AID 2388); assay type: functional, cell-based;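 note: yeast reporter cells carrying a calcineurin-responsive lacZ construct stimulated with calcium chloride; luminescent beta-galactosidase reporter signal in whole cells rather than isolated phosphatase activity; potency for inhibition where a drop in reporter signal means calcineurin blockade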
T2 sequence (B9W6M3 whole entry): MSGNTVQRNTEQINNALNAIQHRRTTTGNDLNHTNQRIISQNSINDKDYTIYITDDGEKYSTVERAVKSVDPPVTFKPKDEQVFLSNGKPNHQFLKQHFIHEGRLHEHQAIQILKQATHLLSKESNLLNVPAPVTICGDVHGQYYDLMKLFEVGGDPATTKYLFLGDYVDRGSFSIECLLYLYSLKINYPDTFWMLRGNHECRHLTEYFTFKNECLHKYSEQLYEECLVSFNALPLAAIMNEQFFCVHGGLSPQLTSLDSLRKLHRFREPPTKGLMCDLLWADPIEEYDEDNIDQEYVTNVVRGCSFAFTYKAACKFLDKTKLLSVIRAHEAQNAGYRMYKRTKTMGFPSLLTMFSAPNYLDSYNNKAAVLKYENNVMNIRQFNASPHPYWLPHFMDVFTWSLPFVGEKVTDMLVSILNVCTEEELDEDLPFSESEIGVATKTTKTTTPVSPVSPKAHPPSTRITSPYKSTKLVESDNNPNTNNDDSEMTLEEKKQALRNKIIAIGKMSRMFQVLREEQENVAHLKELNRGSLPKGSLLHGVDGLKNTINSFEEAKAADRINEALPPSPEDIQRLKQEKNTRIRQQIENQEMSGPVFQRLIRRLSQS

Streptococcus = test: GAS UMAA2166 growth inhibition – luminescence, BacTiterGlo, counter-screen for streptokinase expression inhibitor project, dose response (AID 1915); assay type: functional, organism-based;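 note: potency for reduction of bacterial viability or growth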
[6] = biological target: Heat shock protein HSP 90-alpha (Homo sapiens, UniProt P07900); assay type: functional, organism-based
Vero = test: viability of Vero cells under compound – cytotoxicity control for flavivirus capping enzyme inhibitors (AID 588742); assay type: functional; settings: Chlorocebus sabaeus
Genome polyprotein = Genome polyprotein (dengue virus type 2, UniProt P29990); test: flavivirus cap methylation enzyme inhibition – biochemical, confirmation dose response, primary screen (AID 588689); assay type: functional
[7] = biological target: ATP-dependent molecular chaperone HSP82 (Candida albicans (strain WO-1) (Yeast), UniProt C4YTQ8); test: steroid-induced GRE reporter decrease in yeast – S. cerevisiae, luminescence, Hsp90 inhibitor project, dose response (AID 2400); assay type: functional, cell-based;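 note: beta-galactosidase luminescence from glucocorticoid response element reporter as proxy for Hsp90 function; inhibitor potency where signal loss means Hsp90 inhibition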
[8] = Luminescence Cell-Based Dose Response to Identify Activators of 5'UTR Stem-Loop Driven Prion Protein mRNA Translation in H4-C Neuroglioblastoma Cells. [Related pubchem assays: 1829 (Project Summary), 1814 (Primary HTS)]; assay type: functional
[9] = Luminescence Cell-Based Dose Response HTS to Identify Activators of Luciferase Translation or Activity in H4 […] Cells. [Related pubchem assays: 1829 (Project Summary), 1814 (Primary HTS)]; assay type: functional
[10] = biological target: Luciferin 4-monooxygenase (Photinus pyralis, UniProt P08659); test: Counter Screen for Luciferase-based Assay Positives. [Related pubchem assays: 620, 618, 411 ]
[11] = Luminescence Cell-Based Dose Response to Identify Activators of Luciferase Translation or Activity in H4-C Neuroglioblastoma Cells. [Related pubchem assays: 1829 (Project Summary), 1814 (Primary HTS)]; assay type: functional
HT-1080 = test: HT1080 cell viability loss – fluorescence readout (AID 620); assay type: functional, cell-based; settings: Homo sapiens
[12] = biological target: T3, Calpain-2 catalytic subunit (Sus scrofa, UniProt P43367); test: m-calpain protease blockers, concentration series – biochemical, fluorogenic peptide substrate, dose response (AID 1420); assay type: functional
T3 sequence (P43367 whole entry): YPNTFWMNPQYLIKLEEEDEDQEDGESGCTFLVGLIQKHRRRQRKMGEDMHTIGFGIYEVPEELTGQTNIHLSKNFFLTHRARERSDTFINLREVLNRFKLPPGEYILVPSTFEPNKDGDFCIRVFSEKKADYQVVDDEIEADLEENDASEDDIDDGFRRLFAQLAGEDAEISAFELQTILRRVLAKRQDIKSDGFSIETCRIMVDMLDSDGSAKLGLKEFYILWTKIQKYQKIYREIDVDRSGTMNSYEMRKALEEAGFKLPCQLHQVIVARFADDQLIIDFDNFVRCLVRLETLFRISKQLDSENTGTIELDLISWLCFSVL

[13] = Luminescence Cell-Based Dose Confirmation to Identify Activators of 5'UTR Stem-Loop Driven Alpha-Synuclein mRNA Translation in H4 Neuroglioblastoma Cells. [Related pubchem assays: 1829 (Project Summary), 1814 (Primary HTS)]; assay type: functional
[14] = Luminescence-based counterscreen assay for KLF5 inhibitors: dose response cell-based high throughput screening assay to identify cytotoxic compounds using the IEC-6 intestinal epithelial cell line. [Related pubchem assays: 1700 (Primary screen.), 1834 (Confirmation screen.), 1858 (Summary AID.), 1905 (Counterscreen.)]; assay type: functional
[15] = biological target: Eukaryotic translation initiation factor 4E (Mus musculus, UniProt P63073); test: blockers of eIF4G binding by eIF4E – biochemical, TR-FRET, dose response (AID 855); assay type: functional;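 note: potency for disrupting eIF4E binding to eIF4GI seen as loss of FRET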
Eukaryotic translation initiation factor 4E, sequence (P63073 whole entry): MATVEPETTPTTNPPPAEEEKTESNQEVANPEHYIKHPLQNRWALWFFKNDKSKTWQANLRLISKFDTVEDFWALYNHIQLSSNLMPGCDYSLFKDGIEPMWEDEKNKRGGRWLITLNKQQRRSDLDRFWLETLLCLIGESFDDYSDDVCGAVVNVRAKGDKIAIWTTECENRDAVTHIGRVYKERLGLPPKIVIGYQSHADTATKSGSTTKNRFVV

ATP-dependent molecular chaperone HSP82, sequence (C4YTQ8 whole entry): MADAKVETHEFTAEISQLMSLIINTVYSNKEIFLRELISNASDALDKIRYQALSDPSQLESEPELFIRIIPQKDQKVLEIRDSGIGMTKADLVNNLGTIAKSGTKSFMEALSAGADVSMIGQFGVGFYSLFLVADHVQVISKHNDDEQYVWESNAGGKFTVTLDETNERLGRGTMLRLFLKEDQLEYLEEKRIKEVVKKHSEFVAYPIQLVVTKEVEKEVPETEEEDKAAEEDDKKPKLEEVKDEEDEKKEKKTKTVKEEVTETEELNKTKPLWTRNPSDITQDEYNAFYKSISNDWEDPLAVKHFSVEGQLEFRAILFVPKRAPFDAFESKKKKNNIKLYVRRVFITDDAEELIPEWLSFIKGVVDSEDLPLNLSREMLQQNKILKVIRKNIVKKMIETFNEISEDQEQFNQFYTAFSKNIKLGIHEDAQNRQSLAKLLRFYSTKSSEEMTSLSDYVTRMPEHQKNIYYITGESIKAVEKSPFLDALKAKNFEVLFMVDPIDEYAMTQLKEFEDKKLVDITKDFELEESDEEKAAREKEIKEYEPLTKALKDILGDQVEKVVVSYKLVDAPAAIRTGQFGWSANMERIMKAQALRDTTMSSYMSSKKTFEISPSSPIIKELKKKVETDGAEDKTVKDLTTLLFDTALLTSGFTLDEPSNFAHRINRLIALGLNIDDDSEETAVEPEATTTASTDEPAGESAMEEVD
Luciferin 4-monooxygenase, sequence (P08659 whole entry): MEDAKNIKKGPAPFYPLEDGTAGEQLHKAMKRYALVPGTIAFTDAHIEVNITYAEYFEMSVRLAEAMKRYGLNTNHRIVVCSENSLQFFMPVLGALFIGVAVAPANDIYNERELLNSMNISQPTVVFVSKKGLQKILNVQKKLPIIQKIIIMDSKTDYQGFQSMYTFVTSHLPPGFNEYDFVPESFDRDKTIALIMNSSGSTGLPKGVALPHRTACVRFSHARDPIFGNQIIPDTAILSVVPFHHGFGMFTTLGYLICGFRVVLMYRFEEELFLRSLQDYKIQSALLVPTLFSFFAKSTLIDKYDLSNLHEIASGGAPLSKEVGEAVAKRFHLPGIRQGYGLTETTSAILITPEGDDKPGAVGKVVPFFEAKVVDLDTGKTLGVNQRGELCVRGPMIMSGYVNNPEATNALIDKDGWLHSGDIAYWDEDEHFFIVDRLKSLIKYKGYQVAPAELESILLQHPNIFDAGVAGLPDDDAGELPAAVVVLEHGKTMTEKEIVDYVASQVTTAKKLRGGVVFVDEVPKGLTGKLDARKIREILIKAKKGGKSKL
Genome polyprotein, sequence (P29990 2492-3391 limits assumed): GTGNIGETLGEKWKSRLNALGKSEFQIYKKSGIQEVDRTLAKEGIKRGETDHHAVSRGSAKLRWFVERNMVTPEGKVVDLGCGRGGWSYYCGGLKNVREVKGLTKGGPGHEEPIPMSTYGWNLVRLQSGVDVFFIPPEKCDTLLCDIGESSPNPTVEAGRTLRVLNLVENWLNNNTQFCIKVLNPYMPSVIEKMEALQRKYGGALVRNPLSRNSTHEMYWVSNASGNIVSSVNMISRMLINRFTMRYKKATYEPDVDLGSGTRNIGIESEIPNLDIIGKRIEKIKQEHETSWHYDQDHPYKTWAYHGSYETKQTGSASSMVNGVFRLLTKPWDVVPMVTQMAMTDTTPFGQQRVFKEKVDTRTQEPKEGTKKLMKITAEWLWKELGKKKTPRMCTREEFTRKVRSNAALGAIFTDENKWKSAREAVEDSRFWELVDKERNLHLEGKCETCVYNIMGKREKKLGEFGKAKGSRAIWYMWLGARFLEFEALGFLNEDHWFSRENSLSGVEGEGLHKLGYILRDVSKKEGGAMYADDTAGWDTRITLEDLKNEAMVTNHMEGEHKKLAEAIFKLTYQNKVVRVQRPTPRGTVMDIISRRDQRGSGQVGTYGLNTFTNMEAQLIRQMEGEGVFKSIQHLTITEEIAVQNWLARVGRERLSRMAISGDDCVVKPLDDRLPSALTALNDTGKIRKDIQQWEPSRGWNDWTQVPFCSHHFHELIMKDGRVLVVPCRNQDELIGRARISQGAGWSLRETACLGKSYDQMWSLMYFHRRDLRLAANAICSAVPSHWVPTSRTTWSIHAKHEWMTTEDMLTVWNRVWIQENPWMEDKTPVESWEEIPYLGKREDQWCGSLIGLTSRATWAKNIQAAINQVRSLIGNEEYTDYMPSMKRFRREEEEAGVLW
NS3, sequence (A3EZJ3 whole entry): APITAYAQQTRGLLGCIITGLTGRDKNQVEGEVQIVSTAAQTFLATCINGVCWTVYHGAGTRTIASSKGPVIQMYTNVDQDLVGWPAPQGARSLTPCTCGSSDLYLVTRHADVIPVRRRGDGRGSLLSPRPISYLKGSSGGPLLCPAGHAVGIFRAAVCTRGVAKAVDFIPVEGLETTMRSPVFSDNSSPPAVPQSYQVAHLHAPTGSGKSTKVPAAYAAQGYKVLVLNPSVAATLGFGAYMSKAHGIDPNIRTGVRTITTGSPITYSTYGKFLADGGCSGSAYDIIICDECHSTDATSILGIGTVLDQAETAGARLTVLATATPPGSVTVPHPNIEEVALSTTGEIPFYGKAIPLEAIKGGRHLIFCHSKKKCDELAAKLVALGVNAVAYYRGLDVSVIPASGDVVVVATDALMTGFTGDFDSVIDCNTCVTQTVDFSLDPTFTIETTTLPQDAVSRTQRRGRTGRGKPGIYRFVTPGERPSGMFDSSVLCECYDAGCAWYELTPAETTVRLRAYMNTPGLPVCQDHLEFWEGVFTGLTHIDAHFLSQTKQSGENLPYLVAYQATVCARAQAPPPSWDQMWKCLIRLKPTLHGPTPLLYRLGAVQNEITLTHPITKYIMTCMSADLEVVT

## O=C(NCCC1=CCCCC1)Nc1ccc2nsnc2c1
[1]
  IC50: 23.8 µM (not active)
Insulin-degrading enzyme
  IC50: > 56 µM (not active)

## O=C1C=CC(=NNc2ccccc2)C=CC1=O
[2]
  EC50: > 160 µM (inactive)
[3]
  EC50: 2.86 µM (active)
[4]
  EC50: 0.237 µM (active)
NS3
  IC50: 12.6 µM (not active)
[5]
  EC50: 2.47 µM (active)
Streptococcus
  EC50: 9.57 µM (active)
[6]
  AC50: 2.02 µM (active)
Vero
  CC50: 23 µM (active)
Genome polyprotein
  IC50: 91.2 µM (active)
[7]
  EC50: 0.887 µM (active)

## O=C(c1cccc(COc2ccc(Cl)cc2Cl)c1)N1CCN(c2ccccn2)CC1
[8]
  EC50: 0.275 µM (active)
[9]
  EC50: < 0.1 µM (inconclusive)
[10]
  EC50: 46.5 µM (active)
[11]
  EC50: 0.242 µM (active)
HT-1080
  EC50: > 50 µM (not active)
[12]
  IC50: > 50 µM (not active)
[13]
  EC50: 0.251 µM (active)

## COc1ccc(OC)c(Nc2nc(=O)c3cccnc3s2)c1
[14]
  IC50: > 39.8 µM (not active)
[15]
  IC50: 50 µM (inactive)
